Literature values as cited in patent US20130345296A1, “Compositions Comprising a Taxane for Coating Medical Devices” (AVIDAL VASCULAR GMBH, priority 2010, published 2013).

How the values were obtained:
microtubules = details: in vitro studies; Rowinsky et al. (1990)
[1] = system: leukemia, colon, breast, melanoma, sarcomas, and Lewis lung tumor systems; details: Tarr et al. (1987); Horwitz (1992)

Q: For CC(=O)O[C@H]1C(=O)[C@@]2(C)[C@H]([C@H](OC(=O)c3ccccc3)[C@]3(O)C[C@H](OC(=O)[C@H](O)[C@@H](NC(=O)c4ccccc4)c4ccccc4)C(C)=C1C3(C)C)[C@]1(OC(C)=O)CO[C@@H]1C[C@@H]2O [taxol, paclitaxel], which “concentrations of taxol that stabilize microtubules” value (microtubules) is on record?
A: The value was 0.1 to 10.0 µg/mL.

Q: What about the “activity against tumor systems” value [1] of the same compound?
A: Its value is “active”.
